{
  "source": "patent US12396975B2",
  "about": "“Treatment of al amyloidosis with melflufen” (Oncopeptides AB, priority 2019, dated 2025)",
  "key": {"[1]": {"tested_on": "lambda light chain secretion in ALMC-2 cells", "assay": "Human Lambda ELISA of light chain secretion, ALMC-2", "assay_type": "cell-based", "details": "72 h; for IC50: Homo sapiens, ALMC2, light chain secretion in supernatant", "method": "(§1) Cells were plated in a 96-well format in the presence of the indicated compound in doses ranging from 0.014 to 10 mM for 72 hours at 37° C. Cell viability was determined by CellTiter-Blue™ using the manufacturer's standard protocol. Lambda and kappa light chain secretion was measured in the supernatant of cells by ELISA.\n(§2) In more detail, for each cell line (JJN3, ALMC-1 and ALMC-2) cells were harvested, washed, re-suspended into full growth media and counted. The cells were seeded at the cell densities shown in Table 1, below, into the inner 60 wells of a 96-well assay plates (Corning, black-wall plates, Cat #3904) in 50 μl/well aliquots. The plates were incubated overnight at 37° C. in 5% humidified CO2. 10 mM stocks of melphalan or melflufen-HCl were used, and sub-aliquots were prepared from the 10 mM stocks of melphalan or melflufen-HCl by diluting the stock. The diluted stock was added into cell culture media at the indicated concentrations for the experiment (0.014 to 10 mM).\n(§3) For analysis of secreted proteins, 72 h after incubation, the cells were pelleted by centrifugation at 300 RCF, 4° C. for 5 min and the supernatant taken and used immediately for ELISA analysis using commercial ELISA kits (below) and the manufacturer's protocols: • Human Kappa ELISA (Bethyl Laboratories, #E80-115) • Human Lambda ELISA (Bethyl Laboratories, #E80-116)"}, "JJN3 cell line": {"tested_on": "JJN3 cell line", "assay": "Cell viability by CellTiter-Blue, JJN3", "assay_type": "cell-based, human", "details": "72 h; for IC50: Homo sapiens, JJN-3, cell viability, CellTiter-Blue, doses 0.014 to 10 mM", "method": "(§4) Cellular toxicity was measured in response to either melflufen or melphalan in the amyloidosis patient-derived light chain secreting ALMC-1 and ALMC-2 cell lines, and the light chain secreting cell line JJN3.\nas §1, §2\n50 microliters per well of compound/vehicle dilutions were added to the plates in replicates of 3 and incubated for 72 h at 37° C. in 5% humidified CO2. To develop the plates after 72 h, 20 μl of CellTiter-Blue™ reagent was added to each test/blank well. The plates were incubated at 37° C., 5% humidified CO2 for 1.5/3 h. Fluorescence was measured using a VarioSkan Flash plate reader (570 nm excitation wavelength, 600 nm emission wavelength)."}, "[2]": {"tested_on": "plasma cells (CD138+ cells) within bone marrow mononuclear cell samples from AL amyloidosis patients", "assay": "Multiplexed high throughput flow cytometry cytotoxicity assay on patient-derived bone marrow mononuclear cells", "assay_type": "cell-based, human", "details": "for EC50: Homo sapiens; for Cytotoxicity compared to melphalan: in vitro AL amyloidosis cell model, identical concentrations; for Response of plasma cells (CD138+ cells) to treatment: 1 to 100,000 nM", "method": "Viably frozen bone marrow mononuclear cells (MNC) from 11 amyloidosis patients were received from a biobank.\nViably frozen cells were thawed and incubated overnight to exclude apoptotic cells. On Day 1, a homogeneous cell suspension at a density of 2×10^6 cells/ml was prepared in RPMI 1640 medium (Lonza) supplemented with 10% fetal bovine serum, 2 mM L-glutamine, penicillin (100 U/ml), streptomycin (100 μg/ml) and 25% conditioned medium from the HS-5 human BM stromal cell line. Melflufen powders were stored in pre-weighted amounts in vials in oxygen and moisture free storage pods. Fresh 10 mM melflufen aliquots were prepared in DMSO. Serial dilutions were prepared in cell culture media and immediately transferred to 96 well plate containing mononuclear cells.\nA multiplexed high throughput flow cytometer based assay (iQue® Screener PLUS) was applied, allowing simultaneous monitoring of drug responses in multiple hematopoietic cell subsets. A panel of eight antibodies against CD8, CD14, CD19, CD38, CD45, CD56, CD138 and CD269 were purchased. Annexin-V and 7-AAD were included to exclude dead or apoptotic cells from the analysis. Optimal antibody concentrations were determined and fluorescence compensations were computed to correct spectral overlaps between different fluorochromes. The plates containing melflufen treated cells were incubated in a humidified environment at 37° C. and 5% CO2. After 72 h, antibody cocktails were added to the wells and incubated for 30 min before the plates were read with the iQue® Screener PLUS instrument (Intellicyt®). The data was analyzed using ForeCyt software (Intellicyt). Graphpad Prism 7.0 to generate dose response graphs. Singlet mononuclear cells were subjected to dead and apoptotic cell exclusion using DNA staining dye 7-AAD and expression of Annexin-V surface antigens. Live cell counts for each cell populations were used to analyse effect of different doses on cell viability. Surviving cell fraction were computed by normalizing with viability of untreated cells for each cell subsets.\nMelflufen was tested in six concentration over 100,000-fold dilutions (1 to 100,000 nM). Out of 12 cell samples tested, two samples were excluded due to poor viability. The viable samples were assigned the reference numbers AL-1886, AL-2983, AL-4839_2, AL-4839_3, AL-4847, AL-5691, AL-5716, AL-5807, AL-7219, AL-400081."}, "ALMC-1 cell line": {"tested_on": "ALMC-1 cell line", "assay": "Cell viability by CellTiter-Blue, ALMC-1", "assay_type": "cell-based, human", "details": "72 h", "method": "as §4, §1\n(§5) In more detail, for each cell line (JJN3, ALMC-1 and ALMC-2) cells were harvested, washed, re-suspended into full growth media and counted. The cells were seeded at the cell densities shown in Table 1, below, into the inner 60 wells of a 96-well assay plates (Corning, black-wall plates, Cat #3904) in 50 μl/well aliquots. The plates were incubated overnight at 37° C. in 5% humidified CO2. 10 mM stocks of melphalan or melflufen-HCl were used, and sub-aliquots were prepared from the 10 mM stocks of melphalan or melflufen-HCl by diluting the stock. […]\n(§6) 50 microliters per well of compound/vehicle dilutions were added to the plates in replicates of 3 and incubated for 72 h at 37° C. in 5% humidified CO2. […] Fluorescence was measured using a VarioSkan Flash plate reader (570 nm excitation wavelength, 600 nm emission wavelength)."}, "[3]": {"tested_on": "kappa light chain secretion in JJN3 cells", "assay": "Human Kappa ELISA of light chain secretion, JJN3", "assay_type": "cell-based", "details": "72 h", "method": "as §1, §2, §3"}, "[4]": {"tested_on": "lambda light chain secretion in ALMC-1 cells", "assay": "Human Lambda ELISA of light chain secretion, ALMC-1", "assay_type": "cell-based", "details": "72 h; for IC50: Homo sapiens, ALMC1, light chain secretion in supernatant", "method": "as §1, §2, §3"}, "ALMC-2 cell line": {"tested_on": "ALMC-2 cell line", "assay": "Cell viability by CellTiter-Blue, ALMC-2", "assay_type": "cell-based, human", "details": "72 h", "method": "as §4, §1, §5, §6"}, "[5]": {"tested_on": "MM.1S, RPMI-8826, U266 and ALMC-2 cells", "assay": "Apoptosis and unfolded protein response (UPR) markers in malignant cell lines", "assay_type": "cell-based, human", "details": "all cell lines tested; 6 h, 12 h or 24 h", "method": "The toxic effects of melflufen and melphalan were compared in malignant cell lines, including RPMI-8826, ALMC-2, MM1S, and U266 to confirm enhanced toxicity of melflufen compared to melphalan. ALMC-2 cells are derived from an amyloidosis patient. MM.1S, RPMI-8826, U266 or ALMC-2 cells were incubated in the presence or absence of melflufen-HCl or melphalan at the indicated concentrations in FIG. 5A for 6 h, 12 h or 24 h. Cells were then harvested and apoptosis and cell death in response to melflufen and melphalan were measured by Annexin V/propidium iodide and live/dead cell staining by flow cytometry, as well as analysis of cleaved caspases 3, 8, and 9 and PARP by western blot. Effects of melflufen and melphalan on the UPR were examined by analysis of UPR associated molecules including phosphorylated eIF2a, ATF4, IRE1a and PERK by immunoblot analysis using commercially available detection reagents and standard protocols, and ATF4, ATF6, PERK, IRE1 and CHOP by real time qPCR with gene specific primer sets. In addition, XBP-1 splicing was evaluated by PCR analysis."}, "AL amyloidosis": {"tested_on": "AL amyloidosis", "details": "cited from earlier work"}},
  "note": "Like-named read-outs stand apart in the source and are kept apart here.",
  "data": [
    {"molecule": "CCOC(=O)[C@H](Cc1ccc(F)cc1)NC(=O)[C@@H](N)Cc1ccc(N(CCCl)CCCl)cc1.Cl", "note": "[melflufen, L-Melphalanyl-4-fluoro-L-phenylalanine ethyl ester]", "values": [
      {"measurement": "Inhibition of light chain secretion compared to melphalan", "setting": "[1]; ALMC-2", "value": "superior inhibition"},
      {"measurement": "IC50", "setting": "[1]", "value": 0.45, "unit": "µM"},
      {"measurement": "IC50", "setting": "JJN3 cell line", "value": 1.2, "unit": "µM"},
      {"measurement": "Sensitivity compared with melphalan", "setting": "JJN3 cell line; JJN3", "value": "increased sensitivity"},
      {"measurement": "EC50", "setting": "[2]; 72 h, sample AL-2983, 72 h, read-out: EC50, survival of plasma cells (CD138+ cells)", "value": 0.007, "unit": "µM"},
      {"measurement": "EC50", "setting": "[2]; 72 h, sample AL-4847, 72 h, read-out: EC50, survival of plasma cells (CD138+ cells)", "value": 0.032, "unit": "µM"},
      {"measurement": "EC50", "setting": "[2]; 72 h, sample AL-5807, 72 h, read-out: EC50, survival of plasma cells (CD138+ cells)", "value": 0.001, "unit": "µM"},
      {"measurement": "EC50", "setting": "[2]; cell samples obtained from a population of AL amyloidosis patients, lowest value, read-out: EC50 values as low as, in vitro AL amyloidosis cell model", "value": "≥ 0.001", "unit": "µM"},
      {"measurement": "Cytotoxicity compared to melphalan", "setting": "[2]", "value": "at least 100 times"},
      {"measurement": "Cytotoxicity compared to melphalan", "setting": "[2]; listed as Melflufen", "value": 100, "unit": "times"},
      {"measurement": "Cytotoxicity in in vitro AL amyloidosis cell model", "setting": "[2]; plasma cells obtained from patients", "value": "highly cytotoxic"},
      {"measurement": "Response of plasma cells (CD138+ cells) to treatment", "setting": "[2]; samples AL-1886, AL-4839_2, AL-4839_3, AL-5716 and AL-7219, 72 h", "value": "no notable response"},
      {"measurement": "Response of plasma cells (CD138+ cells) to treatment", "setting": "[2]; samples AL-2983, AL-4847, AL-5691, AL-5807 and AL-400081, 72 h", "value": "displayed sensitivity"},
      {"measurement": "Sensitivity compared with melphalan", "setting": "ALMC-1 cell line; ALMC-1", "value": "increased sensitivity"},
      {"measurement": "IC50", "setting": "ALMC-1 cell line; Homo sapiens, ALMC1, cell viability, CellTiter-Blue, doses 0.014 to 10 mM", "value": 1.6, "unit": "µM"},
      {"measurement": "IC50", "setting": "[3]; Homo sapiens, JJN-3, light chain secretion in supernatant", "value": 2.9, "unit": "µM"},
      {"measurement": "Inhibition of light chain secretion compared to melphalan", "setting": "[3]; JJN3", "value": "superior inhibition"},
      {"measurement": "Inhibition of light chain secretion compared to melphalan", "setting": "[4]; ALMC-1", "value": "superior inhibition"},
      {"measurement": "IC50", "setting": "[4]", "value": 0.2, "unit": "µM"},
      {"measurement": "Sensitivity compared with melphalan", "setting": "ALMC-2 cell line; ALMC-2", "value": "increased sensitivity"},
      {"measurement": "IC50", "setting": "ALMC-2 cell line; Homo sapiens, ALMC2, cell viability, CellTiter-Blue, doses 0.014 to 10 mM", "value": 1.2, "unit": "µM"},
      {"measurement": "Sensitivity with regard to inducing apoptosis, XBP-1 splicing and markers of UPR and apoptosis, compared to melphalan", "setting": "[5]", "value": "significantly more sensitive to melflufen than melphalan"}
    ]},
    {"molecule": "N[C@@H](Cc1ccc(N(CCCl)CCCl)cc1)C(=O)O", "note": "[melphalan, reference compound]", "values": [
      {"measurement": "IC50", "setting": "[1]", "value": 5.1, "unit": "µM"},
      {"measurement": "IC50", "setting": "JJN3 cell line", "value": 5.4, "unit": "µM"},
      {"measurement": "IC50", "setting": "[4]", "value": 2.5, "unit": "µM"},
      {"measurement": "Treatment-related toxicity and mortality", "setting": "AL amyloidosis; high-dose melphalan (for example 200 mg/m^2) with autologous hematopoietic stem cell rescue", "value": "significant treatment-related toxicity and high treatment related mortality rates"},
      {"measurement": "Plasma cell levels and survival", "setting": "AL amyloidosis; melphalan (for example 20-25 mg/m^2) in combination with prednisolone", "value": "reduce plasma cell levels and increase survival rates by a few months"}
    ]}
  ]
}
